Results reported in patent US7790709B2 (dated 2010).

Row | SMILES | melting point
1 | CN(Cc1cc2ccccc2n1C)C(=O)/C=C/c1ccc(NC(=O)CCC(=O)N2CCOCC2)nc1 | 206 to 209 °C (dec.)
2 | CN(Cc1cc2ccccc2n1C)C(=O)/C=C/c1ccc(N2C(=O)CCC2=O)nc1 | 185 to 187 °C
3 | CN(Cc1cc2ccccc2n1C)C(=O)/C=C/c1ccc(NC(=O)CCC(N)=O)nc1 | 225 to 227 °C
